How the values were obtained:
Test in all cases: -log10 GI50 (growth inhibition 50%) (-log10(M)); higher = more potent growth inhibition
MDAMB453 = tested on: MDAMB453
Outline: (§1)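 A value carrying a < qualifier equals the top dose tested. Each compound was tested in triplicate on breast cancer cell lines for 72 hours at nine doses in 1:5 serial dilution, using a luminescence read-out against a time-zero plate. Nonlinear least squares fitting of a Gompertz curve gave GI50, the molar concentration causing the set level of growth inhibition, which is reported as its negative logarithm. The logarithm is base 10.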

HCC1395 = tested on: HCC1395
Outline: as §1

T47D_KBluc = tested on: T47D_KBluc
Outline: as §1

BT483 = tested on: BT483
Outline: as §1

SUM229PE = tested on: SUM229PE
Outline: as §1

SUM149PT = tested on: SUM149PT
Outline: as §1

HCC202 = tested on: HCC202
Outline: as §1

HCC1419 = tested on: HCC1419
Outline: as §1

MCF10F = tested on: MCF10F
Outline: as §1

UACC812 = tested on: UACC812
Outline: as §1

HBL100 = tested on: HBL100
Outline: as §1

-log10 GI50 (MDAMB453)	-log10 GI50 (HCC1395)	-log10 GI50 (T47D_KBluc)	-log10 GI50 (BT483)	-log10 GI50 (HCC202)	-log10 GI50 (HCC1419)	SMILES	-log10 GI50 (SUM229PE)	-log10 GI50 (SUM149PT)	-log10 GI50 (MCF10F)	-log10 GI50 (UACC812)	-log10 GI50 (HBL100)
6.28	6.3	6.46	6.25	6.28	6.51	CCNCCCCNCCCCNCCCCNCCCCNC/C=C/CNCCCCNCCCCNCCCCNCCCCNCC	6.24	6.53	5.96	6.78	–
< 4.3	5.3	< 4.3	4.56	–	5.32	COc1cc2c(Nc3ccc(NC(=O)c4ccccc4)cc3)ncnc2cc1OCCCN1CCOCC1	5.93	< 4	< 4	5.41	–
8.33	7.31	7.71	8.94	9.25	9.48	COc1ncc(-c2ccc3nccc(-c4ccnnc4)c3c2)cc1NS(=O)(=O)c1ccc(F)cc1F	8.59	7.64	8.67	8.49	–
< 4	4.56	< 4	4.45	–	4.88	Nc1[nH]nc2nnc(-c3c(-c4ccccc4)nn4ccccc34)cc12	< 4.48	4.73	4.09	4.56	–
< 4.18	< 4.18	< 4.18	< 4.48	–	< 4.18	O=C(O)c1ccc(-c2c[nH]c3ncc(-c4ccccc4)cc23)cc1C1CCCC1	5.8	< 4.18	4.59	< 4.18	–
5.26	6.15	5.38	6.19	–	5.72	O=C1C(Cl)=C(NCCN2CCOCC2)C(=O)c2ncccc21	5.26	5.69	5.6	5.6	–
4.69	4.22	< 4.48	4.77	–	4.69	O=C1NC(=O)/C(=C/c2ccc(-c3ccc(F)cc3O)o2)S1	< 4.18	5	< 4.48	4.88	–
< 4.48	4.82	–	4.84	–	4.79	Oc1cc(-c2nc(-c3ccccc3)[nH]c2-c2ccncc2)ccc1Cl	4.52	5.14	4.92	4.9	–
< 4.3	4.42	< 4.3	< 4.3	–	4.75	Cn1cnc2c(F)c(Nc3ccc(Br)cc3Cl)c(C(=O)NOCCO)cc21 [AZD6244]	7.13	6.32	5.62	< 4.3	–
6.92	< 4.48	< 4.48	5.87	–	7.2	Cn1c(=O)n(-c2ccc(C(C)(C)C#N)cc2)c2c3cc(-c4cnc5ccccc5c4)ccc3ncc21 [BEZ235]	6.67	6.5	< 4.48	5.69	–
7.04	5.93	5.45	5.78	–	8.53	CN(C)C/C=C/C(=O)Nc1cc2c(Nc3ccc(F)c(Cl)c3)ncnc2cc1O[C@H]1CCOC1 [BIBW2992]	5.95	7.13	7.01	8.55	–
3.8	4.73	4	4.44	4.41	4.09	O=c1cc(-c2ccccc2)oc2cc(O)c(O)c(O)c12 [Baicalein]	4.08	4.29	< 3.78	4.19	–
8.07	8.15	6.52	7.44	8.14	8.86	CC(C)C[C@H](NC(=O)[C@H](Cc1ccccc1)NC(=O)c1cnccn1)B(O)O [Bortezomib]	7.48	8	7.59	–	7.35
–	5.93	< 4.48	5.43	–	5.97	COc1cc(Nc2c(C#N)cnc3cc(OCCCN4CCN(C)CC4)c(OC)cc23)c(Cl)cc1Cl [Bosutinib]	5.88	6.13	5.75	5.56	–
5.3	5.53	5.79	5.37	6.03	4.18	COc1cc([C@@H]2c3cc4c(cc3[C@@H](O[C@@H]3O[C@@H]5CO[C@@H](C)O[C@H]5[C@H](O)[C@H]3O)[C@H]3COC(=O)[C@H]23)OCO4)cc(OC)c1O [Etoposide]	6.04	5.58	6.13	–	5.67
7.59	4.98	5	5.55	–	8.4	CO[C@H]1C[C@@H]2CC[C@@H](C)[C@@](O)(O2)C(=O)C(=O)N2CCCC[C@H]2C(=O)O[C@H]([C@H](C)C[C@@H]2CC[C@@H](OCCO)[C@H](OC)C2)CC(=O)[C@H](C)/C=C(\C)[C@@H](O)[C@@H](OC)C(=O)[C@H](C)C[C@H](C)/C=C/C=C/C=C/1C [Everolimus]	4.75	5.42	6	7.49	–
< 4.18	< 4.18	< 4.18	< 4.48	–	< 4.18	CSCC[C@H](NC(=O)[C@H](Cc1ccccc1)NC[C@@H](NC[C@@H](N)CS)C(C)C)C(=O)O [FTase inhibitor I]	< 4.48	4.76	< 4.48	< 4.48	–
7.06	6.49	7.31	7.18	7.37	6.58	O=C1c2ccccc2-[n+]2ccc3c([nH]c4ccccc43)c21 [Fascaplysin]	6.51	6.4	6.58	–	6.26
5.79	3.51	2.8	4.15	–	2.73	O=c1[nH]c(=O)n([C@H]2C[C@H](O)[C@@H](CO)O2)cc1F [Floxuridine]	4.16	4.12	4.34	4.11	–

-log10 GI50 (MDAMB453)	-log10 GI50 (HCC1395)	-log10 GI50 (T47D_KBluc)	-log10 GI50 (BT483)	-log10 GI50 (HCC202)	-log10 GI50 (HCC1419)	SMILES	-log10 GI50 (SUM229PE)	-log10 GI50 (SUM149PT)	-log10 GI50 (MCF10F)	-log10 GI50 (UACC812)	-log10 GI50 (HBL100)
4.58	5.05	< 4.18	–	–	4.77	Cc1cncc2cccc(S(=O)(=O)N3CCCN(C(=O)CN)C[C@@H]3C)c12 [Glycyl H1152]	5.31	4.57	< 4.18	4.59	–
3.97	4.89	3.92	4.24	–	5.12	CCCCCN(C)CCC(O)(P(=O)(O)O)P(=O)(O)O [Ibandronate sodium]	4.27	3.76	3.81	3.83	–
7.37	7.64	6.79	6.08	8.12	5.18	Cc1ccc(C(=O)N(CCCN)[C@@H](c2nc3cc(Cl)ccc3c(=O)n2Cc2ccccc2)C(C)C)cc1 [Ispinesib]	7.48	7.48	7.57	–	7.52
8.34	7.96	7.61	5.27	6.37	4.93	C/C(=C\c1csc(C)n1)[C@@H]1C[C@@H]2O[C@]2(C)CCC[C@H](C)[C@H](O)[C@@H](C)C(=O)C(C)(C)[C@@H](O)CC(=O)N1 [Ixabepilone]	8.72	8.26	8.08	5.24	–
7.31	6.56	6.88	7.14	–	7.23	Cc1[nH]c2ccccc2c1CCNCc1ccc(/C=C/C(=O)NO)cc1 [LBH589]	6.57	6.6	6.04	6.89	–
5.29	< 4.78	< 4.78	< 4.78	6.12	6.61	CS(=O)(=O)CCNCc1ccc(-c2ccc3ncnc(Nc4ccc(OCc5cccc(F)c5)c(Cl)c4)c3c2)o1 [Lapatinib]	4.86	–	4.94	6.34	–
6.41	6.64	6.77	6.81	–	6.8	CC(C)C[C@@H](C=O)NC(=O)[C@H](CC(C)C)NC(=O)[C@H](CC(C)C)NC(=O)OCc1ccccc1 [MG-132]	6.98	6.8	7.14	6.72	–
4.91	5.03	4.43	–	–	4.54	NS(=O)(=O)c1ccc(Nc2nc(OCC3CCCCC3)c3[nH]cnc3n2)cc1 [NU6102]	5.1	5.14	5	4.42	–
5.31	5.72	–	5.24	–	5.36	CC[C@H](CO)Nc1nc(NCc2ccccc2O)c2ncn(C(C)C)c2n1 [Olomoucine II]	5.13	5.18	5.03	5.19	–
6.56	5.67	5.9	6.27	–	5.88	O=C(/C=C/C#Cc1cccc(NS(=O)(=O)c2ccccc2)c1)NO [Oxamflatin]	5.74	6.23	5.41	5.75	–
< 2.53	< 2.53	< 2.53	< 2.53	5.11	< 2.53	Nc1nc2[nH]cc(CCc3ccc(C(=O)N[C@@H](CCC(=O)O)C(=O)O)cc3)c2c(=O)[nH]1 [Pemetrexed]	4.53	< 2.53	< 2.53	< 2.53	–
3.09	4.32	4.38	4.92	4.14	4	CNC(=O)c1cc(Oc2ccc(NC(=O)Nc3ccc(Cl)c(C(F)(F)F)c3)cc2)ccn1 [Sorafenib]	5	4.8	4.46	–	4.33
5.3	5.35	5.12	4.73	5.03	4.72	CCN(CC)CCNC(=O)c1c(C)[nH]c(/C=C2\C(=O)Nc3ccc(F)cc32)c1C [Sunitinib malate]	5.46	5.57	5.39	–	5.34
< 3.88	< 3.88	< 3.88	< 3.88	–	4.31	N#Cc1c(-c2ccccc2)cc(-c2cc(Br)ccc2O)[nH]c1=O [TCS PIM-11]	4.57	4.49	< 3.88	< 3.88	–
5.22	4.5	5.4	5	6.4	4.9	CC(/C=C/C(=O)NO)=C\[C@@H](C)C(=O)c1ccc(N(C)C)cc1 [Trichostatin A]	4.83	5.14	4.22	5.05	–
5.03	5.21	4.49	5.44	–	4.81	Cc1cc(Nc2cc(N3CCN(C)CC3)nc(Sc3ccc(NC(=O)C4CC4)cc3)n2)n[nH]1 [VX-680]	6.47	5.07	4.99	4.79	–
3.15	2.47	2.76	3.01	–	2.93	CCCC(CCC)C(=O)O [Valproic acid]	2.65	2.86	2.42	2.59	–
4.49	3.49	3.99	4.23	5.03	4.27	O=C(CCCCCCC(=O)Nc1ccccc1)NO [Vorinostat]	4.02	4.02	3.08	4.37	–

SMILES	-log10 GI50 (MDAMB453)	-log10 GI50 (HCC1395)	-log10 GI50 (T47D_KBluc)	-log10 GI50 (BT483)	-log10 GI50 (HCC202)	-log10 GI50 (HCC1419)	-log10 GI50 (SUM229PE)	-log10 GI50 (SUM149PT)	-log10 GI50 (MCF10F)	-log10 GI50 (UACC812)	-log10 GI50 (HBL100)
O=c1[nH]c2ccccc2n1C1CCN(Cc2ccc(-c3[nH]c4cc5ncnc5cc4nc3-c3ccccc3)cc2)CC1 [Akt inhibitor VIII]	5.73	5.25	5.31	6.2	–	6.03	4.94	4.96	5.42	5.45	–
C[C@]12O[C@H](C[C@]1(O)CO)n1c3ccccc3c3c4c(c5c6ccccc6n2c5c31)CNC4=O [Lestaurtinib]	6.19	6.91	5.17	6.21	–	5.94	6.48	7.12	5.72	5.75	–
O=S(=O)(CC1CS1)c1ccc(Oc2ccccc2)cc1 (stereo not drawn) [SB-3CT]	< 3.78	4.03	< 3.78	4.59	–	< 3.78	< 4	4.27	< 4	< 4	–

Source: the supplement of paper PMC3937590
